The text below walks through data of patent US9963462B2 (priority 2015, dated 2018).

pIC50: −log10 of the molar value.

One assay relates to BH4 levels in SK-N-BE (2) cells. Put plainly: SKN-N-BE (2) cellular assay, BH4 levels by LC-MS. The following applies: Homo sapiens, SKNBE2, read-out: SK-N-BE(2) IC50, SK-N-BE (2) cells, BH4 levels by LC-MS. Format: cell-based.
In general, pIC50 refers to the negative decadic logarithm of the IC50, by convention in mol/L. For `Cc1c(C(=O)N2CC[C@@H](C(F)(F)F)C[C@H]2C)cnn1-c1nc2c(c(=O)[nH]1)CCC2` (single isomer, unassigned) [Q-0442], the pIC50 is 6.70.

As to `Cc1c(C(=O)N2CC[C@H](C(F)(F)F)C[C@@H]2C)cnn1-c1nc2c(c(=O)[nH]1)CCC2` (single isomer, unassigned) [Q-0459], the pIC50 is 7.23.

Regarding `Cc1c(C(=O)N2CCC(C(F)(F)F)CC2)cnn1-c1nc2ncsc2c(=O)[nH]1` [Q-0433], the negative logarithm of the IC50 (pIC50) was 4.24.

For `Cc1c(C(=O)N2CCC(C(F)(F)F)CC2)cnn1-c1nn2cccc2c(=O)[nH]1` [Q-0533], the pIC50 was 7.16.

Take `CCCC(C#N)C1CCN(C(=O)c2cnn(-c3nn4cccc4c(=O)[nH]3)c2C)CC1` (centres unmarked) [Q-0858]: the pIC50 was 7.36.

As for `Cc1c(C(=O)N2C[C@H]3C[C@@H]2CN3C(=O)OC(C)(C)C)cnn1-c1nn2cccc2c(=O)[nH]1` [Q-0860], the negative-log IC50 (pIC50) is 6.00.

As for `Cc1c(C(=O)N2CC(CN(C)C(=O)OC(C)(C)C)C2)cnn1-c1nn2cccc2c(=O)[nH]1` [Q-0861], the negative-log IC50 (pIC50) was 6.40.

As to `Cc1c(C(=O)N2CCN3C(=O)CC[C@@H]3C2)cnn1-c1nn2cccc2c(=O)[nH]1` [Q-0862], the pIC50 is 5.00.

`O=C(c1cnn(-c2nn3c(F)ccc3c(=O)[nH]2)c1C1CC1)N1CCC1` [Q-0863]: the pIC50 was 6.22.

As for `Cc1c(C(=O)N2CCC3C(CCN3C(=O)OC(C)(C)C)C2)cnn1-c1nn2cccc2c(=O)[nH]1` (centres unmarked) [Q-0865], the pIC50 was 7.00.

Take `Cc1c(C(=O)N2CCn3ccnc3C2)cnn1-c1nn2cccc2c(=O)[nH]1` [Q-0866]: the pIC50 is 5.17.

In the case of `Cc1c(C(=O)N2CCn3c(nnc3C3CC3)C2)cnn1-c1nn2cccc2c(=O)[nH]1` [Q-0868], the pIC50 was 5.00.

As to `Cc1c(C(=O)N2C3CCC2CN(c2ccc(C#N)cc2)C3)cnn1-c1nn2cccc2c(=O)[nH]1` [Q-0869], the pIC50 is 7.00.

Turning to `Cc1c(C(=O)N2C3CCC2CN(c2ccc(C(F)(F)F)cc2)C3)cnn1-c1nn2cccc2c(=O)[nH]1` [Q-0870], the negative logarithm of the IC50 (pIC50) was 6.52.

On to `Cc1c(C(=O)N2CCn3cc(C(F)(F)F)nc3C2)cnn1-c1nn2cccc2c(=O)[nH]1` [Q-0871], for which the pIC50 is 5.40.

As to `Cc1c(C(=O)N2CCN3C(=O)CC[C@H]3C2)cnn1-c1nn2cccc2c(=O)[nH]1` [Q-0872], the pIC50 was 5.00.

Take `Cc1c(C(=O)N2CCn3cncc3C2)cnn1-c1nn2cccc2c(=O)[nH]1` [Q-0873]: the pIC50 is 5.00.

For the molecule `Cc1c(C(=O)N2CC3CC(C#N)CC3C2)cnn1-c1nn2cccc2c(=O)[nH]1` (centres unmarked) [Q-0874], the pIC50 is 5.96.

Regarding `Cc1c(C(=O)N2C3CCC2CN(c2ccccc2)C3)cnn1-c1nn2cccc2c(=O)[nH]1` [Q-0875], the pIC50 was 7.12.

For `Cc1c(C(=O)N2C3CCC2CN(c2cccc(F)c2)C3)cnn1-c1nn2cccc2c(=O)[nH]1` [Q-0876], the pIC50 was 7.06.

As to `Cc1c(C(=O)N2C3CCC2CN(c2ccc(C#N)cn2)C3)cnn1-c1nn2cccc2c(=O)[nH]1` [Q-0877], the pIC50 is 6.70.

For the molecule `Cc1c(C(=O)N2CC3CCN(C(=O)OC(C)(C)C)C3C2)cnn1-c1nn2cccc2c(=O)[nH]1` (centres unmarked) [Q-0878], the pIC50 is 6.10.

`Cc1c(C(=O)N2CC3CC(C(N)=O)CC3C2)cnn1-c1nn2cccc2c(=O)[nH]1` (centres unmarked) [Q-0879]: the pIC50 was 5.00.

For `Cc1c(C(=O)N2C3CCC2CN(c2ccc(F)cc2)C3)cnn1-c1nn2cccc2c(=O)[nH]1` [Q-0880], the pIC50 is 7.06.

Regarding `Cc1c(C(=O)N2CCN3CCC[C@@]3(C)C2)cnn1-c1nn2cccc2c(=O)[nH]1` [Q-0881], the pIC50 is 5.64.

For the next assay, the target named is SNAP-hSPR (sepiapterin reductase, SPR) (Homo sapiens, UniProt P35270). Kind of assay: biochemical. Format: binding. Conditions: terbium labelled SNAP-hSPR / SSZ labelled SNAP-EGFP; read-out: hTR-FRET IC50.
SNAP-hSPR (sepiapterin reductase, SPR), sequence (P35270 whole entry): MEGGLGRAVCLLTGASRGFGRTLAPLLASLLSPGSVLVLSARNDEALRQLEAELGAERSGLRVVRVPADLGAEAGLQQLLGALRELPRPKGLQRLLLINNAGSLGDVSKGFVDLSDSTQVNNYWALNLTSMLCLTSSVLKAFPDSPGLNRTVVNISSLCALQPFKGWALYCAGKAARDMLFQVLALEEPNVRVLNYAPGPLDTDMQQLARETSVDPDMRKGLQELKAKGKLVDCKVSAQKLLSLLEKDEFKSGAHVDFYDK
In the case of `Cc1c(C(=O)N2CCN(S(=O)(=O)c3cccc(C(F)(F)F)c3)CC2)cnn1-c1nn2cccc2c(=O)[nH]1` [Q-1826], the pIC50 was 8.70.

For `CC(=O)Nc1nc(C)c(S(=O)(=O)N2CCN(C(=O)c3cnn(-c4nn5cccc5c(=O)[nH]4)c3C)CC2)s1` [Q-1827], the pIC50 was 9.00.

For `Cc1c(C(=O)N2CCN(S(=O)(=O)c3ccc4c(c3)OCO4)CC2)cnn1-c1nn2cccc2c(=O)[nH]1` [Q-1829], the pIC50 was 8.70.

`Cc1c(C(=O)N2CCN(S(=O)(=O)c3ccc(Cl)c(Cl)c3)CC2)cnn1-c1nn2cccc2c(=O)[nH]1` [Q-1830]: the pIC50 is 8.70.

Turning to `Cc1c(C(=O)N2CCN(S(=O)(=O)c3ccc4ccccc4c3)CC2)cnn1-c1nn2cccc2c(=O)[nH]1` [Q-1831], the pIC50 was 8.52.

Turning to `Cc1c(C(=O)N2CCN(S(=O)(=O)c3cnn(C)c3)CC2)cnn1-c1nn2cccc2c(=O)[nH]1` [Q-1832], the pIC50 was 8.52.

As for `CC(=O)Nc1ccc(S(=O)(=O)N2CCN(C(=O)c3cnn(-c4nn5cccc5c(=O)[nH]4)c3C)CC2)cc1` [Q-1833], the pIC50 was 9.00.

On to `Cc1c(C(=O)N2CCN(S(=O)(=O)c3ccc(C(F)(F)F)cc3)CC2)cnn1-c1nn2cccc2c(=O)[nH]1` [Q-1834], for which the pIC50 was 9.00.

On to `Cc1c(C(=O)N2CCN(S(=O)(=O)c3cc(C(F)(F)F)cc(C(F)(F)F)c3)CC2)cnn1-c1nn2cccc2c(=O)[nH]1` [Q-1835], for which the pIC50 was 8.40.

For `Cc1c(C(=O)N2CCN(S(=O)(=O)c3ccc(Br)cc3)CC2)cnn1-c1nn2cccc2c(=O)[nH]1` [Q-1837], the pIC50 was 9.00.

In the case of `COc1ccc(OC)c(S(=O)(=O)N2CCN(C(=O)c3cnn(-c4nn5cccc5c(=O)[nH]4)c3C)CC2)c1` [Q-1839], the pIC50 was 8.70.

In the case of `Cc1c(C(=O)N2CCN(S(=O)(=O)c3ccc(Cl)c(C(F)(F)F)c3)CC2)cnn1-c1nn2cccc2c(=O)[nH]1` [Q-1840], the pIC50 is 8.52.

As to `Cc1c(C(=O)N2CCN(S(=O)(=O)c3cccc(C(=O)O)c3)CC2)cnn1-c1nn2cccc2c(=O)[nH]1` [Q-1845], the pIC50 was 8.70.

Turning to `Cc1c(C(=O)N2CCN(S(=O)(=O)c3cnc4ccccc4c3)CC2)cnn1-c1nn2cccc2c(=O)[nH]1` [Q-1864], the pIC50 was 8.40.

For `Cc1c(C(=O)N2CCN(S(=O)(=O)c3ccc(Cl)c4nonc34)CC2)cnn1-c1nn2cccc2c(=O)[nH]1` [Q-1885], the pIC50 was 8.00.

With `Cc1c(C(=O)N2CCC(S(=O)(=O)c3ccccc3)CC2)cnn1-c1nn2cccc2c(=O)[nH]1` [Q-1984], the pIC50 was 9.00.

Consider `Cc1c(C(=O)N2CCC(S(C)(=O)=O)CC2)cnn1-c1nn2cccc2c(=O)[nH]1` [Q-1985], for which the pIC50 is 8.70.

In the case of `Cc1c(C(=O)N2CCC(S(=O)(=O)N3CCCC3)CC2)cnn1-c1nn2cccc2c(=O)[nH]1` [Q-2007], the pIC50 was 9.00.

With `Cc1c(C(=O)N2CCc3[nH]nc(C(F)(F)F)c3C2)cnn1-c1nn2cccc2c(=O)[nH]1` [Q-2031], the pIC50 is 8.52.

Consider `Cc1c(C(=O)N2CCN(C(=O)c3ccco3)CC2)cnn1-c1nn2cccc2c(=O)[nH]1` [Q-2032], for which the pIC50 is 8.22.

In the case of `Cc1c(C(=O)N2CCN(C3COC3)CC2)cnn1-c1nn2cccc2c(=O)[nH]1` [Q-2041], the pIC50 is 8.52.

Take `Cc1c(C(=O)N2CC(c3ccncc3F)C2)cnn1-c1nn2cccc2c(=O)[nH]1` [Q-2043]: the pIC50 was 8.30.

Turning to `Cc1c(C(=O)N2CCc3c(c(C(F)(F)F)nn3C)C2)cnn1-c1nn2cccc2c(=O)[nH]1` [Q-2048], the pIC50 was 8.40.

Turning to `Cc1c(C(=O)N2CC[C@@H]2c2ccc(F)nc2)cnn1-c1nn2cccc2c(=O)[nH]1` [Q-2054], the pIC50 is 8.40.

Regarding `Cc1c(C(=O)N2CC[C@H]2c2ccc(F)nc2)cnn1-c1nn2cccc2c(=O)[nH]1` [Q-2055], the negative-log IC50 (pIC50) was 8.15.
